{"source": "patent US11013726B2", "about": "(Arbutus Biopharma Corporation, priority 2016, dated 2021)"}
{"system": "HBsAg", "experiment": "HBsAg assay", "assay_type": "cell-based, hepatitis B virus", "conditions": "Hepatitis B virus, HepG2.2.15, 144 h, read-out: sAg EC50, μM, HepG2.2.15 cells, day 6", "outline": "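HepG2.2.15 cells were treated with serially diluted compounds (0.5% DMSO), with medium and compound renewed after 2-3 days. Secreted HBsAg measured at day 6 by chemiluminescence immunoassay; EC50 from dose-response curves. Viability assessed in parallel by CellTiter-Glo.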", "units": {"EC50": "µM"}}
{"smiles": "COCCCOc1cc2c(cc1Cl)-c1cc(=O)c(NC(=O)OCC(C)(C)C)cn1C(C(C)(C)C)C2", "note": "(stereo not drawn) [Example 124, Neopentyl (6-(tert-butyl)-10-chloro-9-(3-methoxypropoxy)-2-oxo-6,7-dihydro-2H-pyrido[2,1-a]isoquinolin-3-yl)carbamate]", "EC50": 16}
{"smiles": "COCCCOc1cc2c(cc1Cl)-c1cc(=O)c(N3C(=O)CCC3=O)cn1C(C(C)(C)C)C2", "note": "(stereo not drawn) [Example 125, 1-[6-Tert-butyl-10-chloro-9-(3-methoxypropoxy)-2-oxo-6H,7H-pyrido[2,1-a]isoquinolin-3-yl]pyrrolidine-2,5-dione]", "EC50": 12}
{"smiles": "COCCCOc1cc2c(cc1Cl)-c1cc(=O)c(NC(=O)NC(C)(C)C)cn1C(C(C)(C)C)C2", "note": "(stereo not drawn) [Example 126, 3-Tert-butyl-1-[6-tert-butyl-10-chloro-9-(3-methoxypropoxy)-2-oxo-6H,7H-pyrido[2,1-a]isoquinolin-3-yl]urea]", "EC50": 6.1}
{"smiles": "COCCCOc1cc2c(cc1Cl)-c1cc(=O)c(NS(=O)(=O)CC(F)(F)F)cn1C(C(C)(C)C)C2", "note": "(stereo not drawn) [Example 127, N-[6-Tert-butyl-10-chloro-9-(3-methoxypropoxy)-2-oxo-6H,7H-pyrido[2,1-a]isoquinolin-3-yl]-2,2,2-trifluoroethanesulfonamide]", "EC50": 15}
{"smiles": "COCCCOc1cc2c(cc1Cl)-c1cc(=O)c(NS(=O)(=O)C(F)(F)F)cn1C(C(C)(C)C)C2", "note": "(stereo not drawn) [Example 128, N-(6-(Tert-butyl)-10-chloro-9-(3-methoxypropoxy)-2-oxo-6,7-dihydro-2H-pyrido[2,1-a]isoquinolin-3-yl)-1,1,1-trifluoromethanesulfonamide]", "EC50": 4.7}
{"smiles": "COCCCOc1cc2c(cc1Cl)-c1cc(=O)c(Nc3ncccn3)cn1C(C(C)(C)C)C2", "note": "(stereo not drawn) [Example 129, 6-(Tert-butyl)-10-chloro-9-(3-methoxypropoxy)-3-(pyrimidin-2-ylamino)-6,7-dihydro-2H-pyrido[2,1-a]isoquinolin-2-one]", "EC50": 5.9}
{"smiles": "COCCCOc1cc2c(cc1Cl)-c1cc(=O)c(N(c3ncccn3)c3ncccn3)cn1C(C(C)(C)C)C2", "note": "(stereo not drawn) [Example 130, 6-(Tert-butyl)-10-chloro-3-(di(pyrimidin-2-yl)amino)-9-(3-methoxypropoxy)-6,7-dihydro-2H-pyrido[2,1-a]isoquinolin-2-one]", "EC50": 0.91}
{"smiles": "COCCCOc1cc2c(cc1Cl)-c1cc(=O)c(I)cn1C(C(C)(C)C)C2", "note": "(stereo not drawn) [Example 131, 6-Tert-butyl-10-chloro-3-iodo-9-(3-methoxypropoxy)-6H,7H-pyrido[2,1-a]isoquinolin-2-one]", "EC50": 2.4}
{"smiles": "COCCCOc1cc2c(cc1Cl)-c1cc(=O)c(-c3ncccn3)cn1C(C(C)(C)C)C2", "note": "(stereo not drawn) [Example 132, 6-Tert-butyl-10-chloro-9-(3-methoxypropoxy)-3-(pyrimidin-2-yl)-6H,7H-pyrido[2,1-a]isoquinolin-2-one]", "EC50": 0.078}
{"smiles": "COCCCOc1cc2c(cc1Cl)-c1cc(=O)c(-c3ccccn3)cn1C(C(C)(C)C)C2", "note": "(stereo not drawn) [Example 133, 6-(Tert-butyl)-10-chloro-9-(3-methoxypropoxy)-3-(pyridin-2-yl)-6,7-dihydro-2H-pyrido[2,1-a]isoquinolin-2-one]", "EC50": 4}
{"smiles": "COCCCOc1cc2c(cc1Cl)-c1cc(=O)c(NC(=O)OC(C)(C)C)cn1[C@H](C(C)C)CO2", "note": "[Example 134, Tert-butyl (R)-(2-chloro-7-isopropyl-3-(3-methoxypropoxy)-11-oxo-6,7-dihydro-11H-benzo[f]pyrido[1,2-d][1,4]oxazepin-10-yl)carbamate]", "EC50": 45}
{"smiles": "COCCCOc1cc2c(cc1Cl)-c1cc(=O)c(-c3ncccn3)cn1[C@H](C(C)C)CO2", "note": "[Example 135, (R)-2-Chloro-7-isopropyl-3-(3-methoxypropoxy)-10-(pyrimidin-2-yl)-6,7-dihydro-11H-benzo[f]pyrido[1,2-d][1,4]oxazepin-11-one]", "EC50": 2}
{"smiles": "COCCCOc1cc2c(cc1Cl)-c1cc(=O)ccn1[C@H](C(C)C)CO2", "note": "[Example 136, (R)-2-Chloro-7-isopropyl-3-(3-methoxypropoxy)-6,7-dihydro-11H-benzo[f]pyrido[1,2-d][1,4]oxazepin-11-one]", "EC50": 0.57}
{"smiles": "COCCCOc1cc2c(cc1Cl)-c1cc(=O)c(-c3ncccc3C)cn1[C@H](C(C)C)CO2", "note": "[Example 137, (R)-2-Chloro-7-isopropyl-3-(3-methoxypropoxy)-10-(3-methylpyridin-2-yl)-6,7-dihydro-11H-benzo[f]pyrido[1,2-d][1,4]oxazepin-11-one]", "EC50": 10}
{"smiles": "COCCCOc1cc2c(cc1Cl)-c1cc(=O)c(-c3ccccn3)cn1[C@H](C(C)C)CO2", "note": "[Example 138, (R)-2-Chloro-7-isopropyl-3-(3-methoxypropoxy)-10-(pyridin-2-yl)-6,7-dihydro-11H-benzo[f]pyrido[1,2-d][1,4]oxazepin-11-one]", "EC50": 12}
{"smiles": "COCCCOc1cc2c(cc1Cl)-c1cc(=O)c(OC)cn1[C@H](C(C)C)CO2", "note": "[Example 139, (R)-2-Chloro-7-isopropyl-10-methoxy-3-(3-methoxypropoxy)-6,7-dihydro-11H-benzo[f]pyrido[1,2-d][1,4]oxazepin-11-one]", "EC50": 14}
{"smiles": "COCCCOc1cc2c(cc1Cl)-c1cc(=O)c(B(O)O)cn1[C@H](C(C)C)CO2", "note": "[Example 140, (R)-(2-Chloro-7-isopropyl-3-(3-methoxypropoxy)-11-oxo-6,7-dihydro-11H-benzo[f]pyrido[1,2-d][1,4]oxazepin-10-yl)boronic acid]", "EC50": 2.1}
{"smiles": "COCCCOc1cc2c(cc1Cl)-c1cc(=O)c(N(C)C(=O)OC(C)(C)C)cn1[C@H](C(C)C)CO2", "note": "[Example 141, Tert-butyl (R)-(2-chloro-7-isopropyl-3-(3-methoxypropoxy)-11-oxo-6,7-dihydro-11H-benzo[f]pyrido[1,2-d][1,4]oxazepin-10-yl)(methyl)carbamate]", "EC50": 1}
{"smiles": "COCCCOc1cc2c(nc1OC)-c1cc(=O)c(C(C)=O)cn1C(C(C)C)C2", "note": "(stereo not drawn) [Example 142, 9-Acetyl-6-isopropyl-2-methoxy-3-(3-methoxypropoxy)-5,6-dihydro-10H-pyrido[1,2-h][1,7]naphthyridin-10-one]", "EC50": 0.62}
{"smiles": "COCCCOc1cc2c(nc1OC)-c1cc(=O)c(C(C)(C)O)cn1C(C(C)C)C2", "note": "(stereo not drawn) [Example 143, 9-(2-Hydroxypropan-2-yl)-6-isopropyl-2-methoxy-3-(3-methoxypropoxy)-5,6-dihydro-10H-pyrido[1,2-h][1,7]naphthyridin-10-one]", "EC50": 0.91}
{"smiles": "COCCCOc1cc2c(cc1Cl)-c1cc(=NO)c(C(=O)OC)cn1C(C(C)(C)C)C2", "note": "(stereo not drawn) [Example 144, Methyl 6-tert-butyl-10-chloro-2-(hydroxyimino)-9-(3-methoxypropoxy)-6H,7H-pyrido[2,1-a]isoquinoline-3-carboxylate]", "EC50": 0.17}
{"smiles": "COCCCOc1cc2c(cc1Cl)-c1cc(=NO)c(C(=O)O)cn1C(C(C)(C)C)C2", "note": "(stereo not drawn) [Example 145, 6-Tert-butyl-10-chloro-2-(hydroxyimino)-9-(3-methoxypropoxy)-6H,7H-pyrido[2,1-a]isoquinoline-3-carboxylic acid]", "EC50": 0.15}
{"smiles": "COCCCOc1cc2c(cc1Cl)-c1cc3noc(=O)c-3cn1C(C(C)(C)C)C2", "note": "(stereo not drawn) [Example 146, 6-(Tert-butyl)-2-chloro-3-(3-methoxypropoxy)-5,6-dihydro-9H-isoxazolo[3′,4′:4,5]pyrido[2,1-a]isoquinolin-9-one]", "EC50": 0.031}
{"smiles": "CN=c1cc2n(cc1C(=O)O)C(C(C)C)Cc1cc(OCCCOC)c(OC)cc1-2", "note": "(stereo not drawn) [Example 147]", "EC50": 0.65}
{"smiles": "COCCCOc1cc2c(cc1OC)-c1cc(=NOC)c(C(=O)OC)cn1C(C(C)C)C2", "note": "(stereo not drawn) [Example 148, Methyl 6-isopropyl-10-methoxy-2-(methoxyimino)-9-(3-methoxypropoxy)-6,7-dihydro-2H-pyrido[2,1-a]isoquinoline-3-carboxylate]", "EC50": 13}
{"smiles": "COCCCOc1cc2c(cc1OC)-c1cc(=NOC)c(C(=O)O)cn1C(C(C)C)C2", "note": "(stereo not drawn) [Example 149]", "EC50": 7.4}
{"smiles": "CCOC(=O)c1cn2c(cc1=NO)-c1cc(Cl)c(OC)cc1OCC2C(C)C", "note": "(stereo not drawn) [Example 150, Ethyl 2-chloro-11-(hydroxyimino)-7-isopropyl-3-methoxy-6,7-dihydro-11H-benzo[f]pyrido[1,2-d][1,4]oxazepine-10-carboxylate]", "EC50": 24}
{"smiles": "COc1cc2c(cc1Cl)-c1cc3noc(=O)c-3cn1C(C(C)C)CO2", "note": "(stereo not drawn) [Example 151, 2-Chloro-7-isopropyl-3-methoxy-6,7-dihydro-10H-benzo[f]isoxazolo[3′,4′:4,5]pyrido[1,2-d][1,4]oxazepin-10-one]", "EC50": 13}
{"smiles": "COCCCOc1cc2c(nc1OC)-c1cc(=NN)c(C(=O)NN)cn1[C@H](C(C)C)C2", "note": "[Example 152, (6S,10)-10-Hydrazinylidene-6-isopropyl-2-methoxy-3-(3-methoxypropoxy)-5H,6H-pyrido[1,2-h]1,7-naphthyridine-9-carbohydrazide]", "EC50": 0.03}
{"smiles": "COCCCOc1cc2c(nc1OC)-c1cc3n[nH]c(=O)c-3cn1[C@H](C(C)C)C2", "note": "[Example 153, (S)-6-Isopropyl-2-methoxy-3-(3-methoxypropoxy)-5,10-dihydropyrazolo[3′,4′:4,5]pyrido[1,2-h][1,7]naphthyridin-9(6H)-one]", "EC50": 0.23}
{"smiles": "COCCCOc1cc2c(nc1OC)-c1cc(=O)c(C(=O)NNC(C)=O)cn1[C@H](C(C)C)C2", "note": "[Example 154, (6S)—N′-Acetyl-6-isopropyl-2-methoxy-3-(3-methoxypropoxy)-10-oxo-5H,6H-pyrido[1,2-h]1,7-naphthyridine-9-carbohydrazide]", "EC50": 0.029}
{"smiles": "COCCCOc1cc2c(nc1OC)-c1cc(=O)c(C(=O)O)cn1C(C)(C(C)C)C2", "note": "(stereo not drawn) [Example 155, 6-Isopropyl-2-methoxy-3-(3-methoxypropoxy)-6-methyl-10-oxo-5,10-dihydro-6H-pyrido[1,2-h][1,7]naphthyridine-9-carboxylic acid]", "EC50": 0.002}
{"smiles": "COCCCOc1cc2c(nc1OC)-c1cc(=O)c(C(=O)O)cn1C(C)(C(C)(C)C)C2", "note": "(stereo not drawn) [Example 158, 6-(Tert-butyl)-2-methoxy-3-(3-methoxypropoxy)-6-methyl-10-oxo-5,10-dihydro-6H-pyrido[1,2-h][1,7]naphthyridine-9-carboxylic acid]", "EC50": 0.001}
